Experimental data from US20250186405A1, “Compound For Use In Treating Narcolepsy” (Alkermes, Inc., priority 2023, published 2025).

System: healthy adult subjects
Assay: Part 1 SAD: treatment-emergent adverse events after single oral dose (N = 6 per dose)
Protocol: Part 1 of the study is a SAD evaluation in healthy subjects consisting of 6 cohorts: Cohorts 1-6 received powder-in-capsule or matching placebo. There were approximately 8 subjects per cohort. Dose levels were as follows:
No food was given for at least 4 hours after dose administration. Water was allowed ad libitum except for the time 1 hour before and 1 hour after study drug administration. Safety assessments including AEs, safety ECGs, vital signs, and clinical laboratory tests were conducted, and plasma PK samples were collected.
Adverse events (AEs) and serious adverse events (SAEs) were monitored continuously until the completion of the study.

## CS(=O)(=O)N[C@H]1CCCN2C(=O)COc3ccccc3C3CCC(CC3)OCC12 (stereo partly drawn) [Compound A, N-[(4S,4aR,7α,10α)-1,2,3,4,4a,5,7,8,9,10,16,17-dodecahydro-17-oxo-7,10-ethanopyrido[1,2-d][1,7,4]benzodioxaazacyclotridecin-4-yl]methanesulfonamide]
1 mg
  AE Leading to Study Drug Discontinuation: 0 n
  Any SAEs: 0 n
  Any TEAE: 4 n
  Death: 0 n
  TEAE Anxiety: 0 n
  TEAE Aspartate aminotransferase increased: 0 n
  TEAE Back pain: 0 n
  TEAE Blood pressure increased: 0 n
  TEAE Dermatitis contact: 1 n
  TEAE Dizziness: 0 n
  TEAE Fatigue: 0 n
  TEAE Headache: 0 n
  TEAE Hot flush: 0 n
  TEAE Hypervigilance: 0 n
  TEAE Insomnia: 0 n
  TEAE Metamorphopsia: 0 n
  TEAE Nausea: 0 n
  TEAE Oropharyngeal pain: 0 n
  TEAE Pharyngitis: 1 n
  TEAE Pollakiuria: 0 n
  TEAE Skin hyperpigmentation: 1 n
  TEAE Upper respiratory tract infection: 0 n
  TEAE Urinary incontinence: 0 n
  TEAE Vision blurred: 0 n
  TEAE by Highest Relationship: Not Related: 4 n
  TEAE by Highest Relationship: Related: 0 n
  TEAE by Highest Severity: Mild: 1 n
  TEAE by Highest Severity: Moderate: 3 n
  TEAE by Highest Severity: Severe: 0 n
3 mg
  AE Leading to Study Drug Discontinuation: 0 n
  Any SAEs: 0 n
  Any TEAE: 0 n
  Death: 0 n
  TEAE Anxiety: 0 n
  TEAE Aspartate aminotransferase increased: 0 n
  TEAE Back pain: 0 n
  TEAE Blood pressure increased: 0 n
  TEAE Dermatitis contact: 0 n
  TEAE Dizziness: 0 n
  TEAE Fatigue: 0 n
  TEAE Headache: 0 n
  TEAE Hot flush: 0 n
  TEAE Hypervigilance: 0 n
  TEAE Insomnia: 0 n
  TEAE Metamorphopsia: 0 n
  TEAE Nausea: 0 n
  TEAE Oropharyngeal pain: 0 n
  TEAE Pharyngitis: 0 n
  TEAE Pollakiuria: 0 n
  TEAE Skin hyperpigmentation: 0 n
  TEAE Upper respiratory tract infection: 0 n
  TEAE Urinary incontinence: 0 n
  TEAE Vision blurred: 0 n
  TEAE by Highest Relationship: Not Related: 0 n
  TEAE by Highest Relationship: Related: 0 n
  TEAE by Highest Severity: Mild: 0 n
  TEAE by Highest Severity: Moderate: 0 n
  TEAE by Highest Severity: Severe: 0 n
8 mg
  AE Leading to Study Drug Discontinuation: 0 n
  Any SAEs: 0 n
  Any TEAE: 1 n
  Death: 0 n
  TEAE Anxiety: 0 n
  TEAE Aspartate aminotransferase increased: 0 n
  TEAE Back pain: 0 n
  TEAE Blood pressure increased: 0 n
  TEAE Dermatitis contact: 0 n
  TEAE Dizziness: 0 n
  TEAE Fatigue: 0 n
  TEAE Headache: 0 n
  TEAE Hot flush: 0 n
  TEAE Hypervigilance: 0 n
  TEAE Insomnia: 0 n
  TEAE Metamorphopsia: 0 n
  TEAE Nausea: 0 n
  TEAE Oropharyngeal pain: 0 n
  TEAE Pharyngitis: 0 n
  TEAE Pollakiuria: 0 n
  TEAE Skin hyperpigmentation: 0 n
  TEAE Upper respiratory tract infection: 1 n
  TEAE Urinary incontinence: 0 n
  TEAE Vision blurred: 0 n
  TEAE by Highest Relationship: Not Related: 1 n
  TEAE by Highest Relationship: Related: 0 n
  TEAE by Highest Severity: Mild: 1 n
  TEAE by Highest Severity: Moderate: 0 n
  TEAE by Highest Severity: Severe: 0 n
15 mg
  AE Leading to Study Drug Discontinuation: 0 n
  Any SAEs: 0 n
  Any TEAE: 4 n
  Death: 0 n
  TEAE Anxiety: 1 n
  TEAE Aspartate aminotransferase increased: 0 n
  TEAE Back pain: 0 n
  TEAE Blood pressure increased: 0 n
  TEAE Dermatitis contact: 0 n
  TEAE Dizziness: 2 n
  TEAE Fatigue: 0 n
  TEAE Headache: 0 n
  TEAE Hot flush: 1 n
  TEAE Hypervigilance: 1 n
  TEAE Insomnia: 1 n
  TEAE Metamorphopsia: 1 n
  TEAE Nausea: 0 n
  TEAE Oropharyngeal pain: 0 n
  TEAE Pharyngitis: 0 n
  TEAE Pollakiuria: 1 n
  TEAE Skin hyperpigmentation: 0 n
  TEAE Upper respiratory tract infection: 0 n
  TEAE Urinary incontinence: 0 n
  TEAE Vision blurred: 1 n
  TEAE by Highest Relationship: Not Related: 0 n
  TEAE by Highest Relationship: Related: 4 n
  TEAE by Highest Severity: Mild: 4 n
  TEAE by Highest Severity: Moderate: 0 n
  TEAE by Highest Severity: Severe: 0 n
25 mg
  AE Leading to Study Drug Discontinuation: 0 n
  Any SAEs: 0 n
  Any TEAE: 4 n
  Death: 0 n
  TEAE Anxiety: 0 n
  TEAE Aspartate aminotransferase increased: 0 n
  TEAE Back pain: 0 n
  TEAE Blood pressure increased: 0 n
  TEAE Dermatitis contact: 0 n
  TEAE Dizziness: 4 n
  TEAE Fatigue: 1 n
  TEAE Headache: 0 n
  TEAE Hot flush: 0 n
  TEAE Hypervigilance: 0 n
  TEAE Insomnia: 0 n
  TEAE Metamorphopsia: 0 n
  TEAE Nausea: 0 n
  TEAE Oropharyngeal pain: 1 n
  TEAE Pharyngitis: 0 n
  TEAE Pollakiuria: 1 n
  TEAE Skin hyperpigmentation: 0 n
  TEAE Upper respiratory tract infection: 0 n
  TEAE Urinary incontinence: 0 n
  TEAE Vision blurred: 0 n
  TEAE by Highest Relationship: Not Related: 0 n
  TEAE by Highest Relationship: Related: 4 n
  TEAE by Highest Severity: Mild: 4 n
  TEAE by Highest Severity: Moderate: 0 n
  TEAE by Highest Severity: Severe: 0 n
50 mg
  AE Leading to Study Drug Discontinuation: 0 n
  Any SAEs: 0 n
  Any TEAE: 2 n
  Death: 0 n
  TEAE Anxiety: 0 n
  TEAE Aspartate aminotransferase increased: 1 n
  TEAE Back pain: 0 n
  TEAE Blood pressure increased: 1 n
  TEAE Dermatitis contact: 0 n
  TEAE Dizziness: 2 n
  TEAE Fatigue: 0 n
  TEAE Headache: 1 n
  TEAE Hot flush: 0 n
  TEAE Hypervigilance: 0 n
  TEAE Insomnia: 0 n
  TEAE Metamorphopsia: 0 n
  TEAE Nausea: 2 n
  TEAE Oropharyngeal pain: 0 n
  TEAE Pharyngitis: 0 n
  TEAE Pollakiuria: 2 n
  TEAE Skin hyperpigmentation: 0 n
  TEAE Upper respiratory tract infection: 0 n
  TEAE Urinary incontinence: 1 n
  TEAE Vision blurred: 1 n
  TEAE by Highest Relationship: Not Related: 0 n
  TEAE by Highest Relationship: Related: 2 n
  TEAE by Highest Severity: Mild: 1 n
  TEAE by Highest Severity: Moderate: 1 n
  TEAE by Highest Severity: Severe: 0 n
Total (N = 36)
  AE Leading to Study Drug Discontinuation: 0 n
  Any SAEs: 0 n
  Any TEAE: 15 n
  Death: 0 n
  TEAE Anxiety: 1 n
  TEAE Aspartate aminotransferase increased: 1 n
  TEAE Back pain: 0 n
  TEAE Blood pressure increased: 1 n
  TEAE Dermatitis contact: 1 n
  TEAE Dizziness: 8 n
  TEAE Fatigue: 1 n
  TEAE Headache: 1 n
  TEAE Hot flush: 1 n
  TEAE Hypervigilance: 1 n
  TEAE Insomnia: 1 n
  TEAE Metamorphopsia: 1 n
  TEAE Nausea: 2 n
  TEAE Oropharyngeal pain: 1 n
  TEAE Pharyngitis: 1 n
  TEAE Pollakiuria: 4 n
  TEAE Skin hyperpigmentation: 1 n
  TEAE Upper respiratory tract infection: 1 n
  TEAE Urinary incontinence: 1 n
  TEAE Vision blurred: 2 n
  TEAE by Highest Relationship: Not Related: 5 n
  TEAE by Highest Relationship: Related: 10 n
  TEAE by Highest Severity: Mild: 11 n
  TEAE by Highest Severity: Moderate: 4 n
  TEAE by Highest Severity: Severe: 0 n
Single doses 1 to 50 mg
  Tolerability: well tolerated
